In data set [1] the test system is Wistar rats. The data set is described as follows: Anticonflict test (water drinking behavior under electroshock). Type of data set: in vivo. The conditions noted are these: oral; for Relieving rate of anxiety: one hour before experiment, male Wistar rats; for anxiolytic effect (in words): dose of 1.0 mg/kg. The protocol: Wistar rats (males weighing 140 to 160 g) were used for experiment in groups of 11 to 14.
Compound 1'a-1, 1'a-5, 1'b-1, 1'''-8, 1'''-9, the above comparison compound, diazepam or buspirone was suspended in a 0.5 % sodium carboxymethyl cellulose solution, and the suspension was orally given to the animal in a volume of 5 ml/kg one hour before the start of experiment.
With reference to a method described in "Process in Anxiolytics and Antidepressants," edited by Showa Ueki and Tatsuo Furukawa, Ishiyaku Shuppansha, 56∼ 59 (1981), the agents were tested using experimental boxes having grid floor and a metal drinking tube in the floor. No water was supplied to the rats for 48 hours before the experiment. Upon lapse of first 24 hours, each group of rats were placed into the experimental box, permitted access to water for 30 seconds and caused to recognize the metal drinking tube. Upon lapse of further 24 hours with access to water prevented, the rats were placed into the box again and permitted access to water on condition that an electric current was passed between the metal drinking tube and the grid to give an electroshock for every 20 times of water drinking behavior to measure the frequency of water drinking behavior for 3 minutes. Anxiolytic effect was evaluated as relieving rate of anxiety as calculated by the following equation. Relieving rate of anxiety = (C-B)/(A-B) × 100 [formula] • A: Frequency of water drinking behavior of a control group without an electroshock and no anxiety (frequency under no punishment) • B: Frequency of water drinking behavior of a group with an electroshock and anxiety (under punishment) and having been administerd a solvent containing no test compound (frequency under solvent-control group) • C: Frequency of water drinking behavior of a group having been administered a test compound and relieved anxiety (frequency under test compound-administered group) Table 7

In data set [2] the test system is ddY mice. The data set is described as follows: Anticonvulsant effect (pentylenetetrazol-induced convulsion method). The format is in vivo. As to conditions: for ED50: Mus musculus, po, 1 h, read-out: ED50 (anticonvulsant effect); for anticonvulsant effect: dose of 300 mg/kg, oral, male ddY mice. As to the method: (§1) Compound 1'a-1, the comparison compound, diazepam or buspirone was suspended in a 0.5 % sodium carboxymethyl cellulose solution, and the suspension was orally administered to 3- to 4-week-old male ddY mice (in groups of 6) in a volume of 10 ml/kg one hour before the start of experiment.
The test was conducted with reference to a method described in "Evaluation of Medicinal Efficacies (1), Pharmacological Test Method (I), Basic Lectures on Development of Pharmaceuticals," 167∼ 172(1971).

For data set [3], the system named is ddY mice. The conditions noted are these: mouse, in vivo, po, 300 mg/kg. As to the method:
(§2) Compound 1'a-1, the comparison compound, diazepam or buspirone was suspended in a 0.5 % sodium carboxymethyl cellulose solution, and the suspension was orally administered to 3- to 4-week-old male ddY mice (in groups of 5) in a volume of 10 ml/kg one hour before the start of experiment.
With reference to a method described in Japan. J. Pharmacol., 49. 337∼ 349(1989), the foreleg of the mouse was hung on a horizontal wire, having a diameter of 1.2 mm and fixed at a level of 30 cm, three times consecutively. […] Thus, ED50 was determined for evaluation.

Data set [4] concerns ddY mice. As to conditions: mouse, in vivo, po, 300 mg/kg. The protocol:
as §2
The test was conducted with reference to a method described in "Evaluation of Medicinal Efficacies (1), Pharmacological Test Method (I ), Basic Lectures on Development of Pharmaceuticals," 50∼ 54(1971). More specifically, the group of mice were given the test drug and thereafter measured the amount of spontaneous locomotor activity for 10 minutes per mouse using Animex MK-110 (Muromachi Kikai Co., Ltd.).
This is another data set of the same source.

In data set [5] the test system is ddY mice. As to conditions: mouse, in vivo, po, 300 mg/kg. The protocol: as §1
The test was conducted with reference to a method described in Japan. J. Pharmacol., 49, 337∼ 349(1989). More specifically, the group of mice were intraperitoneally given 25 % ethanol at a dose of 20 ml/kg and checked for the time interval between loss and recovery of the righting reflex.
The source holds these as a separate data set.

Data set [6] concerns ddY mice. The data set is described as follows: Acute toxicity test. Type of data set: in vivo. As to conditions: oral, 6 male ddY mice, observed for 3 days. From the text: Five-week-old male ddY mice were used in groups of 6. […]

SMILES strings stand for the structures.

For the compound `CN1C(=O)CN=C(c2ccccc2)c2cc(Cl)ccc21` [Diazepam], the “Relieving rate of anxiety” value in data set [1] (dose 1.0 mg/kg) was -3%. In addition, in data set [1], the “anxiolytic effect (in words)” value was “almost ineffective”. The ED50 in data set [2] amounted to 0.35 mg/kg.

`COc1ccc(C(=O)N2C(=O)CC[C@H]3[C@H](O)CC[C@H]32)cc1` (racemic) [Compound 1'a-1, (1RS, 6RS, 7RS)-7-hydroxy-2-(4-methoxybenzoyl)-2-azabicyclo-[4.3.0]nonan-3-one]: the entries for the “Relieving rate of anxiety” value in data set [1] (dose 0.01 mg/kg), in data set [1] (dose 0.1 mg/kg) and in data set [1] (dose 1.0 mg/kg) were 93%, 86% and 76%, respectively. The muscle relaxant effect entry in data set [3] is “no muscle relaxant effect”. In addition, in data set [4], the sedative effect entry is “no sedative effect”. Besides, the ethanol enhancing effect result in data set [5] is “no ethanol enhancing effect”. In data set [2], the anticonvulsant effect result was “no anticonvulsant effect”. Further, the Number of death was 0 in data set [6] (dose 2000 mg/kg) and 2 in data set [6] (dose 3000 mg/kg).

For the compound `O=C1CC2(CCCC2)CC(=O)N1CCCCN1CCN(c2ncccn2)CC1` [Buspirone], in data set [1] (dose 1.0 mg/kg), the “Relieving rate of anxiety” value is reported as 2%. In addition, the “anxiolytic effect (in words)” value in data set [1] is recorded as “almost ineffective”. Besides, the median effective dose (ED50) in data set [2] was not below 300 mg/kg.

As for `O=C1CC2CCCCC2N1` (stereo not shown) [Comparison Compound, 2-azabicyclo[3.4.0]nonane-3-one], the “Relieving rate of anxiety” value in data set [1] (dose 0.01 mg/kg) was found to be 43%; in data set [1] (dose 0.1 mg/kg) it was 44%; in data set [1] (dose 1.0 mg/kg) it was 46%. Besides, in data set [1] (doses of 0.01 to 0.1 mg/kg), the decreased anxiety entry is “up to 50%”. The muscle relaxant effect result in data set [3] is listed as “no muscle relaxant effect”. The sedative effect result in data set [4] is reported as “no sedative effect”. The ethanol enhancing effect entry in data set [5] is recorded as “no ethanol enhancing effect”. Further, the anticonvulsant effect entry in data set [2] is “no anticonvulsant effect”. The Number of death in data set [6] (dose 2000 mg/kg) is recorded as 1; in data set [6] (dose 3000 mg/kg), 5.
